# In the kinase profiling compilation of Christmann-Franck et al. (2016):
# Tests used:
# Test in all cases: radiometric filter-binding kinase assay
# [1] = tested on: AKT2 (human), P31751 [S474D]
# [2] = biological target: BTK (human) (UniProt Q06187)
# [3] = biological target: CDK2 CCNA2 (human) (UniProt P20248+P24941)
# [4] = biological target: CHEK2 (human) (UniProt O96017)
# [5] = biological target: CSK (human) (UniProt P41240)
# [6] = biological target: CSNK1D (human) (UniProt P48730)
# [7] = biological target: EPHA4 (human) (UniProt P54764); details: compound 10.0 µM
# [8] = biological target: EPHB1 (human) (UniProt P54762)
# [9] = biological target: EPHB4 (human) (UniProt P54760)
# [10] = biological target: FLT1 (human) (UniProt P17948)
# [11] = biological target: IKBKB (human) (UniProt O14920)
# [12] = biological target: IKBKE (human) (UniProt Q14164)
# [13] = biological target: INSRR (human) (UniProt P14616)
# [14] = biological target: MAP2K1 (human) (UniProt Q02750)
# [15] = biological target: MAPK1 (human) (UniProt P28482)
# [16] = biological target: MAPK14 (human) (UniProt Q16539)
# [17] = biological target: MAPK3 (human) (UniProt P27361)
# [18] = biological target: MAPKAPK3 (human) (UniProt Q16644)
# [19] = biological target: MKNK2 (human) (UniProt Q9HBH9)
# [20] = biological target: NEK2 (human) (UniProt P51955)
# [21] = biological target: NEK6 (human) (UniProt Q9HC98)
# [22] = biological target: PAK7 (human) (UniProt Q9P286)
# [23] = biological target: PIM2 (human) (UniProt Q9P1W9)
# [24] = biological target: PLK1 (human) (UniProt P53350)
# [25] = tested on: PRKAA1 or PRKAA2 (rat); details: accession and sequence are those of the human protein
# [26] = biological target: PRKACA (human) (UniProt P17612)
# [27] = biological target: RIPK2 (human) (UniProt O43353)
# [28] = biological target: RPS6KA1 KD1 KD2 (human) (UniProt Q15418)
# [29] = biological target: RPS6KA3 KD1 KD2 (human) (UniProt P51812)
# [30] = biological target: RPS6KA5 KD1 KD2 (human) (UniProt O75582)
# [31] = tested on: RPS6KB1 (human), P23443 [T412E]
# [32] = biological target: SRC (human) (UniProt P12931)
# [33] = biological target: SYK (human) (UniProt P43405)
# [34] = biological target: TTK (human) (UniProt P33981)
# Chain of MAPK3 (human) (P27361 whole entry, looked up): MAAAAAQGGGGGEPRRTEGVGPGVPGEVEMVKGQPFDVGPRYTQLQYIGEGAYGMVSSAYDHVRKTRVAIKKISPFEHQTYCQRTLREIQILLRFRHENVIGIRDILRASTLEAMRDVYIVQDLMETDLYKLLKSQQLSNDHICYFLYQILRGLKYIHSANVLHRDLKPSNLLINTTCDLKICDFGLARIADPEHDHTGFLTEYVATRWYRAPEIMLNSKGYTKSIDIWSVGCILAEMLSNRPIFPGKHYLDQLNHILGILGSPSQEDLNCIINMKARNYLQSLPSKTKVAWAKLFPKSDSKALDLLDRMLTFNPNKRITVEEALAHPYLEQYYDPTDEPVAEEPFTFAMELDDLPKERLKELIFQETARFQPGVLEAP
# Chain of PLK1 (human) (P53350 whole entry, looked up): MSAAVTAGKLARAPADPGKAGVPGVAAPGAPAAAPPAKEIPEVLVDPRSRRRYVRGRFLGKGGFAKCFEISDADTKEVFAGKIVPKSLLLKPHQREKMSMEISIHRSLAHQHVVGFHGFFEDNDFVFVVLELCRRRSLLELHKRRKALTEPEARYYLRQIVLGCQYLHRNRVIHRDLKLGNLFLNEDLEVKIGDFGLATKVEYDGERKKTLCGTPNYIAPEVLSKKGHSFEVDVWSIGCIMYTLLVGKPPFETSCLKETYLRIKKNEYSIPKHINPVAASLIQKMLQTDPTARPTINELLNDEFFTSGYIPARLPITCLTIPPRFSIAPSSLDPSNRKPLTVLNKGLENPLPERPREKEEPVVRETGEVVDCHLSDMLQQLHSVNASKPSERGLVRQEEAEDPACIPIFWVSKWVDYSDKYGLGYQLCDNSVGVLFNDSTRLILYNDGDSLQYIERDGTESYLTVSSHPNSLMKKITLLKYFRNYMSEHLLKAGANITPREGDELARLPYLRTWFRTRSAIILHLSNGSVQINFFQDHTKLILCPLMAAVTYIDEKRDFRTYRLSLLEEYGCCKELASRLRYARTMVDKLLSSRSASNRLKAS
# Chain of INSRR (human) (P14616 whole entry, looked up): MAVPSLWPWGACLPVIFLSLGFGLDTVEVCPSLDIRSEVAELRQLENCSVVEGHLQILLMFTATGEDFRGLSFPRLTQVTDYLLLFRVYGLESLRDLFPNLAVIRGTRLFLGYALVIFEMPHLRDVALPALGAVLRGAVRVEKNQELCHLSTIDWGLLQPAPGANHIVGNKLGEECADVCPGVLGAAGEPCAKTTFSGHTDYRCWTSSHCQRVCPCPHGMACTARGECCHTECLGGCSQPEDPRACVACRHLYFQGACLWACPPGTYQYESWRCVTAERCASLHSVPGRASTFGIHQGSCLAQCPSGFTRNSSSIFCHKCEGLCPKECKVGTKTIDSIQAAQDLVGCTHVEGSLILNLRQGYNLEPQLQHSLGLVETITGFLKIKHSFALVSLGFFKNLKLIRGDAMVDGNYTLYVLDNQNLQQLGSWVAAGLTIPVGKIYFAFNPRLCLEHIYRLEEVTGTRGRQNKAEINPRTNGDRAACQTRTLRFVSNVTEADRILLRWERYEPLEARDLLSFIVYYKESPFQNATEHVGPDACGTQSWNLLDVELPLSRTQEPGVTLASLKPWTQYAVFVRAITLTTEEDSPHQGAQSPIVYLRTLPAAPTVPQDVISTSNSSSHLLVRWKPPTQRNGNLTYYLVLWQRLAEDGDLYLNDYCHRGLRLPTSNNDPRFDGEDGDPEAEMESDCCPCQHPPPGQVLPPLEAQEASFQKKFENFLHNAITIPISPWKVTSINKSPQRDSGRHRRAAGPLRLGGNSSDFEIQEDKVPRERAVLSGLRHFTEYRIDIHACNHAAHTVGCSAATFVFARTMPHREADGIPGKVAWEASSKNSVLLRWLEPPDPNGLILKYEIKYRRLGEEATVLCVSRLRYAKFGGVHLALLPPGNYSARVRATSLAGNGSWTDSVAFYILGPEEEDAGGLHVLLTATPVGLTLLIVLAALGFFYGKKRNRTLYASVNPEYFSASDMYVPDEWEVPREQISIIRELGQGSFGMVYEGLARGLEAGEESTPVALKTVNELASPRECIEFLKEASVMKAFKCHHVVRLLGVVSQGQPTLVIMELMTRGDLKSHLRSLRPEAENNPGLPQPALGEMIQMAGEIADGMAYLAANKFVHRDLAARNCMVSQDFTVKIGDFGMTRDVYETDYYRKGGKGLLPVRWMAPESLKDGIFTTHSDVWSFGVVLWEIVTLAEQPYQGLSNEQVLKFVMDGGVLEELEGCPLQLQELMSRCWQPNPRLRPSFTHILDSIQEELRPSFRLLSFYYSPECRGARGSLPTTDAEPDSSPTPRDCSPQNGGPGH
# Chain of NEK6 (human) (Q9HC98 whole entry, looked up): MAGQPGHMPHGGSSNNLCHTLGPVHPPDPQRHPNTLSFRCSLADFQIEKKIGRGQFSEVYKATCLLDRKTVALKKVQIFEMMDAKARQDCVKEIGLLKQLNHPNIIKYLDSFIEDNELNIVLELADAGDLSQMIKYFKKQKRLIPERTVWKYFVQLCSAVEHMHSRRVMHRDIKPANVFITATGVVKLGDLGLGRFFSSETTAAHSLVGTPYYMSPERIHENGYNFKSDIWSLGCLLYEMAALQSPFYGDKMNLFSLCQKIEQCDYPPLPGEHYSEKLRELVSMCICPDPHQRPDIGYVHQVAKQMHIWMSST
# Chain of RPS6KB1 (human), P23443 [T412E] (P23443 whole entry T412E, looked up): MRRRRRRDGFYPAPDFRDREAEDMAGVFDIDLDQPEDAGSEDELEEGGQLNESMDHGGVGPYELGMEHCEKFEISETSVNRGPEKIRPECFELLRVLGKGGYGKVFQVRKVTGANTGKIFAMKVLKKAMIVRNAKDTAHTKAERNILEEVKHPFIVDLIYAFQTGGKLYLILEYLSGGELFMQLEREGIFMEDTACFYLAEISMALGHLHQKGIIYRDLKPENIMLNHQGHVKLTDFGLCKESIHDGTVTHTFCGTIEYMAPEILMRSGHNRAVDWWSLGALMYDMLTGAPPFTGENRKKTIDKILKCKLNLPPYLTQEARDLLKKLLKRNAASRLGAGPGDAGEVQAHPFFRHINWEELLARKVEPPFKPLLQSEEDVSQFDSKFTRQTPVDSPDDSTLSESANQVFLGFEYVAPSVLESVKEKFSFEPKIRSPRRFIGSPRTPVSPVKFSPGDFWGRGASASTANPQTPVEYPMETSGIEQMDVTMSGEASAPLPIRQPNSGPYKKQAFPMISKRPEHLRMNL
# Chain of CSNK1D (human) (P48730 whole entry, looked up): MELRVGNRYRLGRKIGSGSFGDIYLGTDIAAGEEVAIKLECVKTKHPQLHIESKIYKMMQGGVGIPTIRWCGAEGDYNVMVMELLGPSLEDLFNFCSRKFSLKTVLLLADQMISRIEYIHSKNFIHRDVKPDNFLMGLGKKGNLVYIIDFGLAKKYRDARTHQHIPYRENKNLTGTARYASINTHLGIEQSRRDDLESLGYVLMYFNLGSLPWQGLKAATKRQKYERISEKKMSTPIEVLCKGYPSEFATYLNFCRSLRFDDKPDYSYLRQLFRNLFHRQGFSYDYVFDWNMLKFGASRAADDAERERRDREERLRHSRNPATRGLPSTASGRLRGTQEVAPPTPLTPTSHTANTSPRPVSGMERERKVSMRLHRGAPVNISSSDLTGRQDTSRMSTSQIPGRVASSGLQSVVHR
# Chain of RIPK2 (human) (O43353 whole entry, looked up): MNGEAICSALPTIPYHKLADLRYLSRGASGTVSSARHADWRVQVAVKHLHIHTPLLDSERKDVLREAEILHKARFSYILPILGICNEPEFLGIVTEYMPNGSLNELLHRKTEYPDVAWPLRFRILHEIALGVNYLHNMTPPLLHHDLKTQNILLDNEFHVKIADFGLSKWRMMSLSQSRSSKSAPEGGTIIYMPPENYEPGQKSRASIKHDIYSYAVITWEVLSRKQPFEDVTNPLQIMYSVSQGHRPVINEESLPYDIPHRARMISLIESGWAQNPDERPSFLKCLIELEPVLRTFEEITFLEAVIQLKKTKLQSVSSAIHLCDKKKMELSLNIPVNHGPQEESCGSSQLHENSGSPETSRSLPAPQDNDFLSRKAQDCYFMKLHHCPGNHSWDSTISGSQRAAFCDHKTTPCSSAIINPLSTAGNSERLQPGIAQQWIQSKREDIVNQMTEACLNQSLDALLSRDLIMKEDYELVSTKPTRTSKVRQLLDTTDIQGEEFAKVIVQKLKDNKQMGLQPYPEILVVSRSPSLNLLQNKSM
# Chain of MAPKAPK3 (human) (Q16644 whole entry, looked up): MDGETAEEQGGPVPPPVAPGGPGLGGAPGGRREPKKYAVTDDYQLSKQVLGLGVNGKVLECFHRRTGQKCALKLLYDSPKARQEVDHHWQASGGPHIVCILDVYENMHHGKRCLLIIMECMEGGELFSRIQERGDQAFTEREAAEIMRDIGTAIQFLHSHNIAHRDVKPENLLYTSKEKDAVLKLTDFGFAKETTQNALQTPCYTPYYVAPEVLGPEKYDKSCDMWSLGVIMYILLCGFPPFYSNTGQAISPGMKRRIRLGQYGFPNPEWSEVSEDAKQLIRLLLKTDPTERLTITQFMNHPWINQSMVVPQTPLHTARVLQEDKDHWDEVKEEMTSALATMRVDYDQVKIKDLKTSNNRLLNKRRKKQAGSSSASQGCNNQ
# Chain of AKT2 (human), P31751 [S474D] (P31751 whole entry S474D, looked up): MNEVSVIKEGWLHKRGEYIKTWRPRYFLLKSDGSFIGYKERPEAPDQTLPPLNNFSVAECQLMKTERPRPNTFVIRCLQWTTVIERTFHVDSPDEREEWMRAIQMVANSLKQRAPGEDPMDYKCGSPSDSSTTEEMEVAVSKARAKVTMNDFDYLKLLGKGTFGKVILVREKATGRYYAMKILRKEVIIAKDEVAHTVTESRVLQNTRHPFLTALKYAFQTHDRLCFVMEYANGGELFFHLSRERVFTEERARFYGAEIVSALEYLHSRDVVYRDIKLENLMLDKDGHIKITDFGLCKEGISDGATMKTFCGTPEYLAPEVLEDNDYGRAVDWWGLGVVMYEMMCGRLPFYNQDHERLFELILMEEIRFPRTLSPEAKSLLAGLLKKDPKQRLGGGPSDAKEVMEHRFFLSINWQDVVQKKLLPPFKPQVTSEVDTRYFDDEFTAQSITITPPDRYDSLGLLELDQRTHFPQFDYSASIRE
smiles,measurement,setting,value
Cc1nc(-c2ccc(OCC(C)C)c(C#N)c2)sc1C(=O)O,residual activity,[1]; compound 1.0 µM,109%
same,residual activity,[1]; compound 10.0 µM,108%
same,residual activity,[2]; compound 1.0 µM,103%
same,residual activity,[2]; compound 10.0 µM,101%
same,residual activity,[3]; compound 1.0 µM,106%
same,residual activity,[3]; compound 10.0 µM,106%
same,residual activity,[4]; compound 1.0 µM,101%
same,residual activity,[4]; compound 10.0 µM,60%
same,residual activity,[5]; compound 1.0 µM,148%
same,residual activity,[5]; compound 10.0 µM,119%
same,residual activity,[6]; compound 1.0 µM,79%
same,residual activity,[6]; compound 10.0 µM,93%
same,residual activity,[7],107%
same,residual activity,[8]; compound 1.0 µM,118%
same,residual activity,[8]; compound 10.0 µM,103%
same,residual activity,[9]; compound 1.0 µM,93%
same,residual activity,[9]; compound 10.0 µM,79%
same,residual activity,[10]; compound 1.0 µM,83%
same,residual activity,[10]; compound 10.0 µM,71%
same,residual activity,[11]; compound 1.0 µM,100%
same,residual activity,[11]; compound 10.0 µM,99%
same,residual activity,[12]; compound 1.0 µM,138%
same,residual activity,[12]; compound 10.0 µM,100%
same,residual activity,[13]; compound 1.0 µM,66%
same,residual activity,[13]; compound 10.0 µM,68%
same,residual activity,[14]; compound 1.0 µM,85%
same,residual activity,[15]; compound 1.0 µM,105%
same,residual activity,[16]; compound 1.0 µM,105%
same,residual activity,[17]; compound 10.0 µM,95%
same,residual activity,[18]; compound 1.0 µM,102%
same,residual activity,[18]; compound 10.0 µM,95%
same,residual activity,[19]; compound 1.0 µM,105%
same,residual activity,[19]; compound 10.0 µM,91%
same,residual activity,[20]; compound 1.0 µM,89%
same,residual activity,[20]; compound 10.0 µM,98%
same,residual activity,[21]; compound 1.0 µM,100%
same,residual activity,[21]; compound 10.0 µM,99%
same,residual activity,[22]; compound 1.0 µM,101%
same,residual activity,[22]; compound 10.0 µM,88%
same,residual activity,[23]; compound 1.0 µM,110%
same,residual activity,[23]; compound 10.0 µM,88%
same,residual activity,[24]; compound 1.0 µM,94%
same,residual activity,[24]; compound 10.0 µM,91%
same,residual activity,[25]; compound 1.0 µM,92%
same,residual activity,[25]; compound 10.0 µM,83%
same,residual activity,[26]; compound 1.0 µM,99%
same,residual activity,[26]; compound 10.0 µM,91%
same,residual activity,[27]; compound 1.0 µM,97%
same,residual activity,[27]; compound 10.0 µM,88%
same,residual activity,[28]; compound 1.0 µM,92%
same,residual activity,[28]; compound 10.0 µM,84%
same,residual activity,[29]; compound 1.0 µM,99%
same,residual activity,[29]; compound 10.0 µM,92%
same,residual activity,[30]; compound 1.0 µM,94%
same,residual activity,[30]; compound 10.0 µM,102%
same,residual activity,[31]; compound 1.0 µM,99%
same,residual activity,[31]; compound 10.0 µM,99%
same,residual activity,[32]; compound 1.0 µM,97%
same,residual activity,[32]; compound 10.0 µM,78%
same,residual activity,[33]; compound 1.0 µM,158%
same,residual activity,[33]; compound 10.0 µM,117%
same,residual activity,[34]; compound 1.0 µM,89%
same,residual activity,[34]; compound 10.0 µM,87%
NS(=O)(=O)OC[C@@H]1C[C@@H](n2ccc3c(N[C@H]4CCc5ccccc54)ncnc32)C[C@@H]1O,residual activity,[1]; compound 10.0 µM,88%
same,residual activity,[2]; compound 10.0 µM,105%
same,residual activity,[3]; compound 1.0 µM,84%
same,residual activity,[3]; compound 10.0 µM,90%
same,residual activity,[4]; compound 10.0 µM,67%
same,residual activity,[5]; compound 1.0 µM,78%
same,residual activity,[6]; compound 1.0 µM,86%
same,residual activity,[6]; compound 10.0 µM,84%
same,residual activity,[7],105%
same,residual activity,[8]; compound 10.0 µM,100%
same,residual activity,[9]; compound 1.0 µM,106%
same,residual activity,[9]; compound 10.0 µM,108%
same,residual activity,[10]; compound 1.0 µM,89%
same,residual activity,[10]; compound 10.0 µM,104%
same,residual activity,[11]; compound 1.0 µM,100%
same,residual activity,[11]; compound 10.0 µM,96%
same,residual activity,[12]; compound 1.0 µM,73%
same,residual activity,[12]; compound 10.0 µM,78%
same,residual activity,[13]; compound 1.0 µM,87%
same,residual activity,[13]; compound 10.0 µM,83%
same,residual activity,[14]; compound 1.0 µM,95%
same,residual activity,[14]; compound 10.0 µM,99%
same,residual activity,[15]; compound 10.0 µM,89%
same,residual activity,[16]; compound 10.0 µM,102%
same,residual activity,[17]; compound 1.0 µM,77%
same,residual activity,[17]; compound 10.0 µM,73%
same,residual activity,[18]; compound 1.0 µM,103%
same,residual activity,[18]; compound 10.0 µM,101%
same,residual activity,[19]; compound 10.0 µM,108%
same,residual activity,[20]; compound 1.0 µM,109%
same,residual activity,[20]; compound 10.0 µM,100%
same,residual activity,[21]; compound 10.0 µM,102%
same,residual activity,[22]; compound 10.0 µM,89%
same,residual activity,[23]; compound 10.0 µM,101%
same,residual activity,[24]; compound 1.0 µM,93%
same,residual activity,[24]; compound 10.0 µM,95%
same,residual activity,[25]; compound 1.0 µM,96%
same,residual activity,[25]; compound 10.0 µM,99%
same,residual activity,[26]; compound 1.0 µM,73%
same,residual activity,[26]; compound 10.0 µM,81%
same,residual activity,[27]; compound 1.0 µM,107%
same,residual activity,[27]; compound 10.0 µM,121%
same,residual activity,[28]; compound 1.0 µM,96%
same,residual activity,[28]; compound 10.0 µM,95%
same,residual activity,[29]; compound 1.0 µM,100%
same,residual activity,[29]; compound 10.0 µM,96%
same,residual activity,[30]; compound 1.0 µM,103%
same,residual activity,[30]; compound 10.0 µM,110%
same,residual activity,[31]; compound 1.0 µM,94%
same,residual activity,[31]; compound 10.0 µM,85%
same,residual activity,[32]; compound 10.0 µM,113%
same,residual activity,[33]; compound 1.0 µM,92%
same,residual activity,[33]; compound 10.0 µM,104%
same,residual activity,[34]; compound 1.0 µM,86%
same,residual activity,[34]; compound 10.0 µM,98%
